The subject of one experiment is mTOR. The experiment in a line: Western blot of mTOR in M5 tumors. The format is in vivo, BALB/c nude mice. To be noted: FIG. 7A.
A further experiment has as its system S6K1. The experiment in a line: Western blot of S6K1 in M5 tumors. The format is in vivo, BALB/c nude mice. The following applies: FIG. 7A. In general terms: Immunoblotting shows a protein as a band on a membrane.
A further experiment concerns Ki67. The experiment in a line: IHC analysis of Ki67 in M5 tumors. The format is in vivo, BALB/c nude mice. To be noted: FIGS. 9A and 9B.
A further experiment has as its system ZEB1. The experiment in a line: Quantitative PCR of ZEB1 mRNA in M5 tumors. The format is in vivo, BALB/c nude mice. To be noted: FIG. 10.
For a further experiment, the system named is H520 cells. Briefly: H520 lung squamous cell carcinoma xenograft, repeat experiment. The experiment is classed as in vivo, nude-BALB/c mice. To be noted: compared to control, FIGS. 13A, 13B. The procedure: Male nude-BALB/c mice at six-weeks of age were obtained from National Laboratory Animal Breeding and Research Center, Taipei, Taiwan. Mice were housed in each cage and provided them with sterile food and water. The mice were maintained under a constant temperature (22±2° C.) and relative humidity (55±5%), with a 12:12 h light: dark cycle. The Institutional Animal Care and Use Committee (IACUC) at the National […] University (IACUC Approval No. 110003) reviewed and approved the study protocol, in which procedures were in accordance with the Guidelines for the Care and Use of Laboratory Animals published by the Taiwanese Ministry of Health and Welfare. Human non-small cell lung carcinoma cell line (H520) was purchased from ATCC Cell Bank. H520 cells were incubated in RPMI 1640 medium (cat no. 61870044; Gibco; Thermo Fisher, Inc) supplemented with 10% fetal bovine serum in an environmental containing 5% CO2 at 37° C. The experimental treatments were commenced after the implanted H520 cells had formed a detectable tumor mass, which was assessed on day 7 after implantation. […] The growth of the tumors was assessed every seven days by measuring their largest and smallest diameters, and calculated their volume according to the following formula: […] […]

The test system of a further experiment is A549 cells. Briefly: A549 lung adenocarcinoma xenograft. The experiment is classed as in vivo, BALB/c nude mice. Here is the method: A549 cell line was purchased from ATCC Cell Bank and was cultured in F-12K medium (cat no. ATCC 30-2004) plus 10% fetal bovine serum, at 37° C., 5% CO2. For experiments, cells were grown to 90% confluence. The experimental treatments were commenced after the implanted A549 cells had formed a detectable tumor mass, which was assessed on day 7 after implantation. Briefly, the mice were anesthetized via intraperitoneal injection of Zoletil (Virbac Taiwan, Taipei, Taiwan), and then subcutaneously injected 100 μl of cell suspension containing 6*10^6 viable A549 cells into right posterior leg. […] All treatments were administered via intraperitoneal injection (IP) or intratumoral injection (IT). The control group (Group 1) received normal saline daily, while the other three treatment groups received their corresponding treatments B.I.W (twice a week) or Q.W (once weekly). The PTS100 group (Group 2) received 330 mg/kg of PTS100 (Gongwin Biopharm Holding, Taipei, Taiwan). The normal saline+pemetrexed+Cisplatin group (Group 3) received 100 mg/kg of pemetrexed and 2 mg/kg of cisplatin. The pemetrexed+cisplatin+PTS100 (Group 4, also known as the “combination”) received 100 mg/kg of pemetrexed, 2 mg/kg of cisplatin, and 330 mg/kg of PTS 100. In group 4, when administering in combination, pemetrexed, cisplatin, PTS100 are given at different days, for example, PTS is given at Monday and Thursday, and pemetrexed+cisplatin is given at Wednesday. See Table 4 for the experimental design of the corresponding treatments, dose, injection site, concentration, volume, number of subjects and dosing frequency. The dosage of pemetrexed, cisplatin, and PTS100 were selected such that these drug affects apoptosis, invasion, metastasis, angiogenesis, and the growth signal mechanisms in […] implanted in mice. The growth of the tumors was assessed every seven days by measuring their largest and smallest diameters, and calculated their volume according to the following formula: […] [table]

The results in this text go back to US12409158B2, “Combination therapy for treating cancer” (GONGWIN BIOPHARM CO., LTD, priority 2022, dated 2025).

Molecules are shown by their SMILES.

In the case of `Cc1ccc(S(N)(=O)=O)cc1` [PTS, p-Toluenesulfonamide], the “expression of mTOR” value in the experiment on mTOR is recorded as “downregulated”. Besides, the “expression of S6K1” value with S6K1 is recorded as “downregulated”. Moreover, the Ki67 expression result with Ki67 was “suppressed”. The “ZEB1 mRNA expression” value in the experiment with ZEB1 is on record as “downregulation”. Moreover, the “tumor volume / tumor burden” value with H520 cells is “slight decrease”; with A549 cells (compared to control, FIG. 14A) it was “slight decrease”. For the same compound, the “Inhibition (%) (tumor growth inhibition)” value in the experiment on A549 cells (PTS100 330 mg/kg IT B.I.W., pemetrexed 100 mg/kg and cisplatin 2 mg/kg IP QW) was found to be 84.13%. The tumor weight result in the experiment with A549 cells (compared to the control, FIG. 14B) is listed as “significant decrease”.
